Test results: the kinase profiling compilation of Christmann-Franck et al. (2016)

Legend:
Experiment in all cases: KINOMEscan competition binding
Conditions in all cases: compound 10.0 µM
PRKD2 (human) = PRKD2 (human) (UniProt Q9BZL6)
MAP2K4 (human) = MAP2K4 (human) (UniProt P45985)
BMPR1B (human) = BMPR1B (human) (UniProt O00238)
CHEK2 (human) = CHEK2 (human) (UniProt O96017)
CDK9 (human) = CDK9 (human) (UniProt P50750)
STK32C (human) = STK32C (human) (UniProt Q86UX6)
NTRK1 (human) = NTRK1 (human) (UniProt P04629)
NEK5 (human) = NEK5 (human) (UniProt Q6P3R8)
Sequence of NEK5 (human) (Q6P3R8 whole entry, looked up): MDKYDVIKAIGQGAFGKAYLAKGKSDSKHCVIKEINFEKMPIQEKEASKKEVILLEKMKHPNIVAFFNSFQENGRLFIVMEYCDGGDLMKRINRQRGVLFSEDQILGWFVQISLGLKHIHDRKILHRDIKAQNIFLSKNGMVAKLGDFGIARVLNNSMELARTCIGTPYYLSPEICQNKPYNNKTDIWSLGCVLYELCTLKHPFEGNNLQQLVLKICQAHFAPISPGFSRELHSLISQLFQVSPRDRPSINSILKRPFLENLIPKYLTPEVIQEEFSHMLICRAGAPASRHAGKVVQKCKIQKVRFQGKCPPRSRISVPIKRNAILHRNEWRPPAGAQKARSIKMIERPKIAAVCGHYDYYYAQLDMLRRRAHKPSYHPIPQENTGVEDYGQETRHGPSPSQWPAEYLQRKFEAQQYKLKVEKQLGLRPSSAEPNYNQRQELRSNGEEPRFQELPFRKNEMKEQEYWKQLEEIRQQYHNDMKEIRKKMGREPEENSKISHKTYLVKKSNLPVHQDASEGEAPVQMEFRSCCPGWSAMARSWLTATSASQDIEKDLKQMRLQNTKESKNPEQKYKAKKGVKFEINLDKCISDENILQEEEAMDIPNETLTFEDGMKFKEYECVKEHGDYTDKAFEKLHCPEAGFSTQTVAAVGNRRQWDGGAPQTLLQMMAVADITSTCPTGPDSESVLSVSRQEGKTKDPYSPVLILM

TGFBR1 (human) = TGFBR1 (human) (UniProt P36897)
Sequence of TGFBR1 (human) (P36897 whole entry, looked up): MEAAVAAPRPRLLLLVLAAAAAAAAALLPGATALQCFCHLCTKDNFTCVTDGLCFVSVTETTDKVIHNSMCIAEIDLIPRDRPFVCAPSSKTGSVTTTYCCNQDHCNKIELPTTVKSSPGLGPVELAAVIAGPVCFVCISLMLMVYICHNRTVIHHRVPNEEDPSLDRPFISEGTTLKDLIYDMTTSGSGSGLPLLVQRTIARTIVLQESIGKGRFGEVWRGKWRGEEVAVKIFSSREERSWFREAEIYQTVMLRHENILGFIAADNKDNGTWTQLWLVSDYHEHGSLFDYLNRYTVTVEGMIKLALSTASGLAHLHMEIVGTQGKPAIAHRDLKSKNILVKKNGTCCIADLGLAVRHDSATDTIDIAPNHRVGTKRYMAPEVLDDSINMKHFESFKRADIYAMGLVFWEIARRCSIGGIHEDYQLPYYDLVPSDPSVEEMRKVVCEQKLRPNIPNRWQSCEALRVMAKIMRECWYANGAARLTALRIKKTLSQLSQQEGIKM

TESK1 (human) = TESK1 (human) (UniProt Q15569)
FER (human) = FER (human) (UniProt P16591)
FLT3 (human) = FLT3 (human) (UniProt P36888)
CAMK1G (human) = CAMK1G (human) (UniProt Q96NX5)
Sequence of CAMK1G (human) (Q96NX5 whole entry, looked up): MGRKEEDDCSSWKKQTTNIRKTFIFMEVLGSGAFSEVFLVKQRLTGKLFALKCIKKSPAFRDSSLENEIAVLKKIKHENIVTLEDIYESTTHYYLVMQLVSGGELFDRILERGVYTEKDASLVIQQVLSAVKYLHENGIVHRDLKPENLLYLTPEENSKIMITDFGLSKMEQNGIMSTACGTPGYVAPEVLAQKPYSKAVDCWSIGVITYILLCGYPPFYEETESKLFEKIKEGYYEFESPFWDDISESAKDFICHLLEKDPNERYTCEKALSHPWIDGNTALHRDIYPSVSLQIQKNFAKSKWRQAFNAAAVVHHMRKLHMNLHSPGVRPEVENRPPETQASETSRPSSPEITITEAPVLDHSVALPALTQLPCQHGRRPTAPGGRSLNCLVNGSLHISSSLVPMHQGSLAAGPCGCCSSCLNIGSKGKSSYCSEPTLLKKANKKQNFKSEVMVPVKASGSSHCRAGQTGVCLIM

TLK2 (human) = TLK2 (human) (UniProt Q86UE8)
FGR (human) = FGR (human) (UniProt P09769)
STK32B (human) = STK32B (human) (UniProt Q9NY57)
DAPK3 (human) = DAPK3 (human) (UniProt O43293)
MAPK4 (human) = MAPK4 (human) (UniProt P31152)
Sequence of MAPK4 (human) (P31152 whole entry, looked up): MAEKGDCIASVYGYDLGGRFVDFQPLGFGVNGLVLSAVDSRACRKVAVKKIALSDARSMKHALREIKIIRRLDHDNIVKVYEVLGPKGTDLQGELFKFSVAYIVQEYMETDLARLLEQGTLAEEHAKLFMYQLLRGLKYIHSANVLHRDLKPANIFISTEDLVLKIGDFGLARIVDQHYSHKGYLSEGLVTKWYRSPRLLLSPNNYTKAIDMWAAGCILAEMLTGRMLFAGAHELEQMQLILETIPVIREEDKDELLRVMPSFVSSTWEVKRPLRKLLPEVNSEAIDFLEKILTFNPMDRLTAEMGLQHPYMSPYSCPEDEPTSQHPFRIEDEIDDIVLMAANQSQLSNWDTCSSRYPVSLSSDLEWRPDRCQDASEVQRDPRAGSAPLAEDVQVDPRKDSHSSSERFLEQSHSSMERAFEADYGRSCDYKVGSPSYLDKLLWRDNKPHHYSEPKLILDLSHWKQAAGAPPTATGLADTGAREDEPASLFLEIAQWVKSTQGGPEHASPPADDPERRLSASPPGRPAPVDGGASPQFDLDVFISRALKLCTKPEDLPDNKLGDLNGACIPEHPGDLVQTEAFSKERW

PLK1 (human) = PLK1 (human) (UniProt P53350)
PKMYT1 (human) = PKMYT1 (human) (UniProt Q99640)
MKNK1 (human) = MKNK1 (human) (UniProt Q9BUB5)
PHKG2 (human) = PHKG2 (human) (UniProt P15735)
PRKG1 (human) = PRKG1 (human) (UniProt Q13976)
MAPK7 (human) = MAPK7 (human) (UniProt Q13164)
Sequence of MAPK7 (human) (Q13164 whole entry, looked up): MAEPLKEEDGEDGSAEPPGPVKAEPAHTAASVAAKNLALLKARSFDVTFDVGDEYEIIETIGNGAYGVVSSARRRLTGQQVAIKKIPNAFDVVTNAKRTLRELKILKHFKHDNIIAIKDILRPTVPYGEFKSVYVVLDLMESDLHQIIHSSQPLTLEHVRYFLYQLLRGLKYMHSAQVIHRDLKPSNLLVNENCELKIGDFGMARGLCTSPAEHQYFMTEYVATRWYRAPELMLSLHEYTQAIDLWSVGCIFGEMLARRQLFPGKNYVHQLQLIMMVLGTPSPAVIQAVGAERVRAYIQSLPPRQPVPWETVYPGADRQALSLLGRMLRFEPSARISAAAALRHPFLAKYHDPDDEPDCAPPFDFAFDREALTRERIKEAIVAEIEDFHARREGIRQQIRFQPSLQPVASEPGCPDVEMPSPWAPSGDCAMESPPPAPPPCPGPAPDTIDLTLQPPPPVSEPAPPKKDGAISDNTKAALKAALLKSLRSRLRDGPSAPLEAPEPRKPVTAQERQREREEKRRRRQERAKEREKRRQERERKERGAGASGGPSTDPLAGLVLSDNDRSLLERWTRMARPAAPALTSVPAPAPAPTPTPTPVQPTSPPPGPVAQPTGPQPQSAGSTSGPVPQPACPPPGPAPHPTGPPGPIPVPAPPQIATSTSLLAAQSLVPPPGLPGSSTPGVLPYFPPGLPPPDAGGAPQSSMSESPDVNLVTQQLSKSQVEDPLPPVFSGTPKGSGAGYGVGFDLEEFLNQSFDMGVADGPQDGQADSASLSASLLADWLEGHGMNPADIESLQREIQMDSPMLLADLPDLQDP

CDK8 (human) = CDK8 (human) (UniProt P49336)
SRMS (human) = SRMS (human) (UniProt Q9H3Y6)
STK16 (human) = STK16 (human) (UniProt O75716)
Sequence of STK16 (human) (O75716 whole entry, looked up): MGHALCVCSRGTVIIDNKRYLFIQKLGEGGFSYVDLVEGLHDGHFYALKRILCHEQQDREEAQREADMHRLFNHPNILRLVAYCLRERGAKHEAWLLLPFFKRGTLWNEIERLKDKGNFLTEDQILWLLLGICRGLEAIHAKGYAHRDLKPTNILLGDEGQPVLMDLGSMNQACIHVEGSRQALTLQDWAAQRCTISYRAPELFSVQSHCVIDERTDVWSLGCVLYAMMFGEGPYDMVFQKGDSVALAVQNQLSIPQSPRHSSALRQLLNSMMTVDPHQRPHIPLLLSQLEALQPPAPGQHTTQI

MAP4K3 (human) = MAP4K3 (human) (UniProt Q8IVH8)
MAP2K1 (human) = MAP2K1 (human) (UniProt Q02750)
TEK (human) = TEK (human) (UniProt Q02763)
[1] = test system: FLT3 (human), P36888 [N841I]
ADCK4 (human) = ADCK4 (human) (UniProt Q96D53)
LCK (human) = LCK (human) (UniProt P06239)
PDGFRA (human) = PDGFRA (human) (UniProt P16234)
Sequence of PDGFRA (human) (P16234 whole entry, looked up): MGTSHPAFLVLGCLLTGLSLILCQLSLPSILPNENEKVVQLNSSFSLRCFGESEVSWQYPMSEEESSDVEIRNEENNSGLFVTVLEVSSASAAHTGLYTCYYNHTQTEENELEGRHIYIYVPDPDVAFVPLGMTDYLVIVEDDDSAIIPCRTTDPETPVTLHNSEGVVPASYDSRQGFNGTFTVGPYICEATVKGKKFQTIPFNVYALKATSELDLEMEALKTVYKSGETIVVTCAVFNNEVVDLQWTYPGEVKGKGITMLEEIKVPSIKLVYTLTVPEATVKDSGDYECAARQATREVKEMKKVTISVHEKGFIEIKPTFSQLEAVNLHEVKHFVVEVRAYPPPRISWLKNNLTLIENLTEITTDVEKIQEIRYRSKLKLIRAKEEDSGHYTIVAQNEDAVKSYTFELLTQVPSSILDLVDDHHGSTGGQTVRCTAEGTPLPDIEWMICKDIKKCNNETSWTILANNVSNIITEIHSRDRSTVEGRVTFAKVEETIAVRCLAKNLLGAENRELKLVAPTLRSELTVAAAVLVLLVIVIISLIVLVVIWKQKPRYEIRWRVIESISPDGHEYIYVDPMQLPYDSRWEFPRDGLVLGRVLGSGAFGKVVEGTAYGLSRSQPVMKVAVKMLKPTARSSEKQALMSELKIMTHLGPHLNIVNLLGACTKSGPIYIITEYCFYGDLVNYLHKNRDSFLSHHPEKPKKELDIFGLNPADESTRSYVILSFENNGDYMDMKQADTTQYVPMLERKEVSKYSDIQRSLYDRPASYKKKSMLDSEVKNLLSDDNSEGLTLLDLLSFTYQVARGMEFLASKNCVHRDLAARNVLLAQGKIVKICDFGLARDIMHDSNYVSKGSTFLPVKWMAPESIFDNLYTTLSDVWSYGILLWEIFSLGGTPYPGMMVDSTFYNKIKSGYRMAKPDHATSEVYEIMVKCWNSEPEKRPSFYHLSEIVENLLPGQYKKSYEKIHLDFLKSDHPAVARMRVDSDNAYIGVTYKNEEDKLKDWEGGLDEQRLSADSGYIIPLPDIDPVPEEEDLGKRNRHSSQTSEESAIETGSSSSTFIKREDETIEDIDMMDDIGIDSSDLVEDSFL

PIM2 (human) = PIM2 (human) (UniProt Q9P1W9)
MYLK (human) = MYLK (human) (UniProt Q15746)
PIP5K1A (human) = PIP5K1A (human) (UniProt Q99755)
RET (human) = RET (human) (UniProt P07949)
TXK (human) = TXK (human) (UniProt P42681)
CLK4 (human) = CLK4 (human) (UniProt Q9HAZ1)
CDK15 (human) = CDK15 (human) (UniProt Q96Q40)

Sequence of BMPR1B (human) (O00238 whole entry, looked up): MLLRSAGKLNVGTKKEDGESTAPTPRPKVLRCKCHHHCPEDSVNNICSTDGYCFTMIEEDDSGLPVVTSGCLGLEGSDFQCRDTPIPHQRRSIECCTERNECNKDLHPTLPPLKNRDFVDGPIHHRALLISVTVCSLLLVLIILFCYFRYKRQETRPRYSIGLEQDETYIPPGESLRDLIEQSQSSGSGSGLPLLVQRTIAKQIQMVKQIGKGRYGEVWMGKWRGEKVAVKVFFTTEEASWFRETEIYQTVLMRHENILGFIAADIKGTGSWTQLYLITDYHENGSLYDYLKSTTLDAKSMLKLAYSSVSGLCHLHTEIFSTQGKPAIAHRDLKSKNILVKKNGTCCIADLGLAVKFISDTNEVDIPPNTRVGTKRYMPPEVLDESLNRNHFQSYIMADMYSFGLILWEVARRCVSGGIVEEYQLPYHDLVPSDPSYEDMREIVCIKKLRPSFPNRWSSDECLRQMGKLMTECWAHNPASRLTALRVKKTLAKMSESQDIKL

`COc1cc(C(=O)NC2CCN(C)CC2)ccc1Nc1ncc2c(n1)N(C1CCCC1)C(C)CC(=O)N2C` (configuration not stated) gave a kinase still bound, per cent of control (PRKD2 (human)) of 100%, a kinase still bound, per cent of control (MAP2K4 (human)) of 100% and a kinase still bound, per cent of control (BMPR1B (human)) of 100%. It also gave a kinase still bound, per cent of control (CHEK2 (human)) of 100%, a kinase still bound, per cent of control (CDK9 (human)) of 100% and a kinase still bound, per cent of control (STK32C (human)) of 100%. It also gave a kinase still bound, per cent of control (NTRK1 (human)) of 100%, a kinase still bound, per cent of control (NEK5 (human)) of 100% and a kinase still bound, per cent of control (TGFBR1 (human)) of 100%. The kinase still bound, per cent of control (TESK1 (human)) was 100%, the kinase still bound, per cent of control (FER (human)) was 31% and the kinase still bound, per cent of control (FLT3 (human)) was 100%. For the same compound, the kinase still bound, per cent of control (CAMK1G (human)) was 100%, the kinase still bound, per cent of control (TLK2 (human)) was 100% and the kinase still bound, per cent of control (FGR (human)) was 100%. The kinase still bound, per cent of control (STK32B (human)) was 100%, the kinase still bound, per cent of control (DAPK3 (human)) was 17% and the kinase still bound, per cent of control (MAPK4 (human)) was 100%. It also gave a kinase still bound, per cent of control (PLK1 (human)) of 19%, a kinase still bound, per cent of control (PKMYT1 (human)) of 100% and a kinase still bound, per cent of control (MKNK1 (human)) of 100%. It also gave a kinase still bound, per cent of control (PHKG2 (human)) of 100%, a kinase still bound, per cent of control (PRKG1 (human)) of 100% and a kinase still bound, per cent of control (MAPK7 (human)) of 100%. It also gave a kinase still bound, per cent of control (CDK8 (human)) of 100%, a kinase still bound, per cent of control (SRMS (human)) of 100% and a kinase still bound, per cent of control (STK16 (human)) of 100%. The kinase still bound, per cent of control (MAP4K3 (human)) was 100%, the kinase still bound, per cent of control (MAP2K1 (human)) was 100% and the kinase still bound, per cent of control (TEK (human)) was 100%. For the same compound, the kinase still bound, per cent of control [1] was 100%, the kinase still bound, per cent of control (ADCK4 (human)) was 100% and the kinase still bound, per cent of control (LCK (human)) was 100%. It also gave a kinase still bound, per cent of control (PDGFRA (human)) of 100%, a kinase still bound, per cent of control (PIM2 (human)) of 100% and a kinase still bound, per cent of control (MYLK (human)) of 2.8%. It also gave a kinase still bound, per cent of control (PIP5K1A (human)) of 100%, a kinase still bound, per cent of control (RET (human)) of 100% and a kinase still bound, per cent of control (TXK (human)) of 100%. For the same compound, the kinase still bound, per cent of control (CLK4 (human)) was 100% and the kinase still bound, per cent of control (CDK15 (human)) was 100%.

For `CN(C)C/C=C/C(=O)Nc1cccc(Nc2ncc3c(n2)N(C)c2ccccc2C(=O)N3C)c1`, the kinase still bound, per cent of control (PRKD2 (human)) was 36%, the kinase still bound, per cent of control (MAP2K4 (human)) was 100% and the kinase still bound, per cent of control (BMPR1B (human)) was 84%. The kinase still bound, per cent of control (CHEK2 (human)) was 94%, the kinase still bound, per cent of control (CDK9 (human)) was 100% and the kinase still bound, per cent of control (STK32C (human)) was 93%. For the same compound, the kinase still bound, per cent of control (NTRK1 (human)) was 18%, the kinase still bound, per cent of control (NEK5 (human)) was 58% and the kinase still bound, per cent of control (TGFBR1 (human)) was 25%. For the same compound, the kinase still bound, per cent of control (TESK1 (human)) was 100%, the kinase still bound, per cent of control (FER (human)) was 100% and the kinase still bound, per cent of control (FLT3 (human)) was 73%. For the same compound, the kinase still bound, per cent of control (CAMK1G (human)) was 52%, the kinase still bound, per cent of control (TLK2 (human)) was 88% and the kinase still bound, per cent of control (FGR (human)) was 4.2%. It also gave a kinase still bound, per cent of control (STK32B (human)) of 100%, a kinase still bound, per cent of control (DAPK3 (human)) of 45% and a kinase still bound, per cent of control (MAPK4 (human)) of 100%. The kinase still bound, per cent of control (PLK1 (human)) was 22%, the kinase still bound, per cent of control (PKMYT1 (human)) was 100% and the kinase still bound, per cent of control (MKNK1 (human)) was 38%. The kinase still bound, per cent of control (PHKG2 (human)) was 25%, the kinase still bound, per cent of control (PRKG1 (human)) was 100% and the kinase still bound, per cent of control (MAPK7 (human)) was 0.1%. For the same compound, the kinase still bound, per cent of control (CDK8 (human)) was 100%, the kinase still bound, per cent of control (SRMS (human)) was 57% and the kinase still bound, per cent of control (STK16 (human)) was 8.4%. It also gave a kinase still bound, per cent of control (MAP4K3 (human)) of 28%, a kinase still bound, per cent of control (MAP2K1 (human)) of 82% and a kinase still bound, per cent of control (TEK (human)) of 35%. For the same compound, the kinase still bound, per cent of control [1] was 9.2%, the kinase still bound, per cent of control (ADCK4 (human)) was 100% and the kinase still bound, per cent of control (LCK (human)) was 1.2%. The kinase still bound, per cent of control (PDGFRA (human)) was 100%, the kinase still bound, per cent of control (PIM2 (human)) was 100% and the kinase still bound, per cent of control (MYLK (human)) was 69%. The kinase still bound, per cent of control (PIP5K1A (human)) was 9.9%, the kinase still bound, per cent of control (RET (human)) was 0.15% and the kinase still bound, per cent of control (TXK (human)) was 11%. It also gave a kinase still bound, per cent of control (CLK4 (human)) of 100% and a kinase still bound, per cent of control (CDK15 (human)) of 84%.
